Measurements from US20040266732A1, “Therapeutic agents, methods, and treatments” (priority 2002, published 2004).
pIC50: −log10 of the molar value.

Legend:
Assay in all cases: NCI 60 cell-line test
Assay type in all cases: cell-based, human
[1] = tested on: A498; details: A498 (Renal Cancer)
Experimental: (§1) Methodology: The NCI conducted a test of the MT103 drug against 60 human cell lines, with a minimum of five concentrations of MT103 at 10-fold dilutions. A 48 hour continuous drug exposure was used, and a sulforhodamine B (SRB) protein assay was used to estimate cell viability and growth. The human tumor cell lines of the cancer screening panel were grown in RPMI 1640 medium containing 5% fetal bovine serum and 2 mM L-glutamine. Cells were inoculated into 96 well microtiter plates in 100 μL at plating densities ranging from 5,000 to 40,000 cells/well depending on the doubling time of individual cell lines. After cell inoculation, the microtiter plates are incubated at 37° C., 5% CO2, 95% air, and 100% relative humidity for 24 h prior to addition of experimental drugs.
(§2) After 24 h, two plates of each cell line were fixed in situ with TCA, to represent a measurement of the cell population for each cell line at the time of drug addition (Tz). MT103 was solubilized in dimethyl sulfoxide at 400-fold the desired final maximum test concentration and stored frozen prior to use. At the time of drug addition, an aliquot of frozen concentrate was thawed and diluted to twice the desired final maximum test concentration with complete medium containing 50 μg/ml gentamicin. Additional four, 10-fold or ½ log serial dilutions were made to provide a total of five drug concentrations plus control. Aliquots of 100 μl of these different drug dilutions were added to the appropriate microtiter wells already containing 100 μl of medium, resulting in the required final drug concentrations.
(§3) Following drug addition, the plates were incubated for an additional 48 h at 37° C., 5% CO2, 95% air, and 100% relative humidity. For adherent cells, the assay was terminated by the addition of cold TCA. Cells were fixed in situ by the gentle addition of 50 μl of cold 50% (w/v) TCA (final concentration, 10% TCA) and incubated for 60 minutes at 4° C. The supernatant was discarded, and the plates were washed five times with tap water and air dried. Sulforhodamine B (SRB) solution (100 μl) at 0.4% (w/v) in 1% acetic acid was added to each well, and plates were incubated for 10 minutes at room temperature. After staining, unbound dye was removed by washing five times with 1% acetic acid and the plates were air-dried. Bound stain was subsequently solubilized with 10 mM trizma base, and the absorbance was read on an automated plate reader at a wavelength of 515 nm. For suspension cells, the methodology was the same except that the assay was terminated by fixing settled cells at the bottom of the wells by gently adding 50 μl of 80% TCA (final concentration, 16% TCA). Using the seven absorbance measurements (time zero, (Tz), control growth, (C), and test growth in the presence of drug at the five concentration levels (Ti)), the percentage growth was calculated at each of the drug concentrations levels. Percentage growth inhibition was calculated as:
(§4) [(Ti-Tz)/(C-Tz)]×100 for concentrations for which Ti>/=Tz
(§5) [(Ti-Tz)/Tz]×100 for concentrations for which Ti<Tz.
(§6) Three dose response parameters were calculated for each experimental agent. Growth inhibition of 50% (GI50) was calculated from [(Ti-Tz)/(C-Tz)]×100=50, which is the drug concentration resulting in a 50% reduction in the net protein increase (as measured by SRB staining) in control cells during the drug incubation. The drug concentration resulting in total growth inhibition (TGI) was calculated from Ti=Tz. The LC50 (concentration of drug resulting in a 50% reduction in the measured protein at the end of the drug treatment as compared to that at the beginning) indicating a net loss of cells following treatment was calculated from [(Ti-Tz)/Tz]×100=−50. Values were calculated for each of these three parameters if the level of activity is reached; however, if the effect was not reached or was exceeded, the value for that parameter was expressed as greater or less than the maximum or minimum concentration tested.

[2] = tested on: DU-145; details: DU-145 (Prostate Cancer)
Experimental: as §1, §2, §3, §4, §5, §6

[3] = tested on: HOP-92
Experimental: as §1, §2, §3, §4, §5, §6

[4] = tested on: KM12; details: KM12 (Colon Cancer)
Experimental: as §1, §2, §3, §4, §5, §6

[5] = tested on: MALME-3M; details: MALME-3M (Melanoma)
Experimental: as §1, §2, §3, §4, §5, §6

[6] = tested on: MCF7; details: MCF7 (Breast Cancer)
Experimental: as §1, §2, §3, §4, §5, §6

[7] = tested on: MDA-MB-231/ATCC; details: MDA-MB-231/ATCC (Breast Cancer)
Experimental: as §1, §2, §3, §4, §5, §6

[8] = tested on: MDA-MB-435; details: MDA-MB-435 (Breast Cancer)
Experimental: as §1, §2, §3, §4, §5, §6

[9] = tested on: NCI-H23; details: NCI-H23 (Non-Small Cell Lung Cancer)
Experimental: as §1, §2, §3, §4, §5, §6

[10] = tested on: NCI-H522; details: NCI-H522 (Non-Small Cell Lung Cancer)
Experimental: as §1, §2, §3, §4, §5, §6

[11] = tested on: NCI/ADR-RES; details: NCI/ADR-RES (Breast Cancer)
Experimental: as §1, §2, §3, §4, §5, §6

[12] = tested on: RPMI-8226; details: RPMI-8226 (Leukemia)
Experimental: as §1, §2, §3, §4, §5, §6

[13] = tested on: SF-268; details: SF-268 (CNS Cancer)
Experimental: as §1, §2, §3, §4, §5, §6

[14] = tested on: SN12C; details: SN12C (Renal Cancer)
Experimental: as §1, §2, §3, §4, §5, §6

[15] = read-out: LC50 (the source's name)

## CC1(C)C2CC[C@@]1(CS(=O)(=O)N(C1CCCCC1)C1CCCCC1)C(O)C2 (stereo partly drawn) [MT103]
[1]
  TGI: 9.07E−05
[1]; read-out: G150
  pIC50: 4.52
[1]; [15]
  CC50: > 100 µM
[2]
  TGI: >1.00E−04
[2]; read-out: G150
  pIC50: 4.52
[2]; [15]
  CC50: > 100 µM
[3]; HOP-92 (Non-Small Cell Lung Cancer)
  TGI: 3.16E−05
[3]; HOP-92 (Non-Small Cell Lung Cancer), read-out: G150
  pIC50: 5.56
[3]; HOP-92 (Non-Small Cell Lung Cancer), read-out: LC50 (the source's name)
  CC50: > 100 µM
[3]; HOP-92, as tested by the NCI, FIG. 1
  −logGI50 value: 5.6
[4]
  TGI: 9.73E−05
[4]; read-out: G150
  pIC50: 4.55
[4]; [15]
  CC50: > 100 µM
[5]
  TGI: 4.44E−05
[5]; read-out: G150
  pIC50: 4.88
[5]; [15]
  CC50: > 100 µM
[6]
  TGI: 9.05E−05
[6]; read-out: G150
  pIC50: 4.69
[6]; [15]
  CC50: > 100 µM
[7]
  TGI: 4.71E−05
[7]; read-out: G150
  pIC50: 4.77
[7]; [15]
  CC50: > 100 µM
[8]
  TGI: 9.88E−05
[8]; read-out: G150
  pIC50: 4.55
[8]; [15]
  CC50: > 100 µM
[9]; read-out: G150
  pIC50: 4.57
[9]; [15]
  CC50: > 100 µM
[10]
  TGI: 5.50E−05
[10]; read-out: G150
  pIC50: 4.67
[10]; [15]
  CC50: > 100 µM
[11]
  TGI: >1.00E−04
[11]; read-out: G150
  pIC50: 4.46
[11]; [15]
  CC50: > 100 µM
[12]
  TGI: 3.68E−05
[12]; read-out: G150
  pIC50: 4.93
[12]; [15]
  CC50: > 100 µM
[13]
  TGI: >1.00E−04
[13]; read-out: G150
  pIC50: 4.45
[13]; [15]
  CC50: > 100 µM
[14]
  TGI: >1.00E−04
[14]; read-out: G150
  pIC50: 4.48
[14]; [15]
  CC50: > 100 µM
